# From patent US20260314597A1, “A NOVEL APPROACH TO INTERFERE IN THE PHENYLPROPANOID BIOSYNTHETIC PATHWAY TO REDUCE PINK-RIB DISORDER IN FRESH LETTUCE” (University of Florida Research Foundation, Inc., priority 2022, published 2026)
# “Also recorded” adds a separate entry of the source. Read-outs that look alike come from different tables or passages of the source.
# Tests used:
# PPO [1] = settings: melatonin 0.1 mM; after 2 d; cited from earlier work
# litchi fruit [2] = settings: cited from earlier work
# romaine lettuce midribs = assay: Pink rib discoloration of romaine midribs / whole leaflets dipped 1 min, stored at 10° C.; type: in vivo
# Description: Pink rib discoloration in excised midrib segments of romaine lettuce was shown above. […] 4.3 mM of melatonin solution was prepared in water containing 0.5% DMSO (dimethyl sulfoxide), and control samples were treated with water containing 0.5% DMSO.
# 1 mM of melatonin solution was prepared in water containing 0.5% DMSO (dimethyl sulfoxide) and control samples were treated with water containing 0.5% DMSO.
# [3] = tested on: key enzymes in the melatonin biosynthesis pathway; settings: strawberry; cited from earlier work
# PAL = settings: melatonin; 25 d storage at 4° C.; cited from earlier work
# cassava roots [4] = settings: cited from earlier work
# litchi fruit [5] = settings: melatonin 0.4 mM, cited from earlier work
# cassava roots [6] = settings: melatonin 0.1 mM, cited from earlier work
# peach fruit = settings: cited from earlier work
# fresh-cut cherimoya = settings: L-cysteine 0.5% or 41.3 mM; 0° C.; cited from earlier work
# [7] = tested on: chlorogenic acid concentration in homogenized lettuce tissue; settings: L-cysteine; 24 h at 25° C.; cited from earlier work
# PPO [8] = settings: role: inhibitor; L-cysteine 1% or 82.5 mM; after 2 d and up to 8 d at 1° C.; cited from earlier work
# fresh-cut artichoke = settings: L-cysteine 0.5% or 41.3 mM; cited from earlier work
# [9] = tested on: fresh-cut iceberg lettuce; settings: cited from earlier work
# PPO [10] = settings: role: inhibitor; L-cysteine 1 to 5 mM; cited from earlier work
# PPO [11] = settings: role: inhibitor; L-cysteine; cited from earlier work
# [12] = melatonin, cassava root, vs untreated
compound,measurement,setting,value
COc1ccc2[nH]cc(CCNC(C)=O)c2c1 [melatonin],PPO activity,PPO [1],significantly lower
same,increase in total phenolics,"litchi fruit [2]; melatonin 0.4 mM, litchi pericarp, up to 6 d",approximately 40%
same,activity of several antioxidants,"litchi fruit [2]; melatonin 0.4 mM, litchi",increased
same,free radical development,"litchi fruit [2]; melatonin 0.4 mM, litchi",reduced
same,key enzymes in the melatonin biosynthesis pathway,"litchi fruit [2]; melatonin, litchi",Upregulation
same,pink rib discoloration vs control,"romaine lettuce midribs; melatonin 1 mM in 0.5% DMSO, 4 days",less pink rib discoloration than control samples
same,pink rib discoloration vs control,"romaine lettuce midribs; melatonin 4.3 mM in 0.5% DMSO, five days, whole leaflet",less pink rib discoloration than control samples
same,key enzymes in the melatonin biosynthesis pathway,[3],Upregulation
same,PAL activity,PAL,increased
same,key enzymes in the melatonin biosynthesis pathway,cassava roots [4]; cassava,Upregulation
same,antioxidant capacity,cassava roots [4]; [12],increased
same,reactive oxygen species (ROS) levels,cassava roots [4]; [12],declined
same,antioxidative enzymes that reduce hydrogen peroxide accumulation,"cassava roots [4]; melatonin, cassava",activated
same,delay of pericarp browning,litchi fruit [5]; 25° C.,4 days
same,discoloration of litchi pericarp,litchi fruit [5]; up to 6 d,significant decrease
same,time to which vascular streaking disorder was delayed,"cassava roots [6]; 28° C., untreated control 6 h",12 h
same,delay of vascular streaking / discoloration,cassava roots [6]; vs untreated control,delayed development of discoloration; also recorded: delayed twice as long as untreated control slices
same,lipid peroxidation,"peach fruit; melatonin 0.1 mM, via increased enzyme activity",inhibited lipid peroxidation
same,senescence,peach fruit; melatonin 0.1 mM,delayed senescence
same,total phenolics,peach fruit; melatonin 0.1 mM,maintained total phenolics
same,antioxidant capacity,"peach fruit; melatonin, vs untreated",increased
same,reactive oxygen species (ROS) levels,"peach fruit; melatonin, vs untreated",declined
N[C@@H](CS)C(=O)O [L-cysteine],delay of pulp browning,fresh-cut cherimoya,up to 12 d
same,chlorogenic acid concentration,[7],reduced chlorogenic acid concentration
same,PPO activity,PPO [8],significantly declined
same,effect on browning of artichoke,fresh-cut artichoke,no effect; also recorded: developed browning or became yellow
same,reduction of discoloration of midrib surface area,"[9]; L-cysteine 8.3 mM, 6 d at 8° C., vs control",greater than 80%
same,delay of pink rib development,"[9]; L-cysteine 0.1% or 8.3 mM, 8° C., untreated discolored after 2 d",6 days
same,"pink rib development, share of midrib surface area","[9]; L-cysteine 0.1% or 8.3 mM, 6 d at 8° C.",< 20 % of the midrib surface area
same,PPO activity,PPO [10],linear decline in PPO activity
same,PPO activity,PPO [11],inhibited PPO activity
